# Reference: PubChem BioAssay (NCI)
#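 All cell lines were grown in 96-well plates and treated with compound for 48 hours. Abbreviation: GI50, concentration required for 50% inhibition of growth. At the TGI there is no net growth.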
# Tests used:
# Test in all cases: DTP human tumour cell line panel, 48 h
# [1] = test system: 786-0 renal
# [2] = test system: A498 renal
# [3] = test system: A549 NSCLC
# [4] = test system: ACHN renal
# [5] = test system: BT-549 breast
# [6] = test system: CAKI-1 renal
# [7] = test system: CCRF-CEM leukemia
# [8] = test system: COLO 205 colon
# [9] = test system: DU-145 prostate
# [10] = test system: EKVX NSCLC
# [11] = test system: HCC-2998 colon
# [12] = test system: HCT-116 colon
# [13] = test system: HCT-15 colon
# [14] = test system: HL-60(TB) leukemia
# [15] = test system: HOP-62 NSCLC
# [16] = test system: HOP-92 NSCLC
# [17] = test system: HT29 colon
# [18] = test system: IGROV1 ovarian
# [19] = test system: K-562 leukemia
# [20] = test system: KM12 colon
# [21] = test system: LOX IMVI melanoma
# [22] = test system: M14 melanoma
# [23] = test system: MALME-3M melanoma
# [24] = test system: MCF7 breast
# [25] = test system: MDA-MB-231 breast
# [26] = test system: MDA-MB-435
# [27] = test system: MDA-N
# [28] = test system: MOLT-4 leukemia
# [29] = test system: NCI-H226 lung
# [30] = test system: NCI-H23 lung
# [31] = test system: NCI-H460 lung
# [32] = test system: NCI-H522 lung
# [33] = test system: NCI/ADR-RES ovarian
# [34] = test system: OVCAR-3 ovarian
# [35] = test system: OVCAR-4 ovarian
# [36] = test system: OVCAR-5 ovarian
# [37] = test system: OVCAR-8 ovarian
# [38] = test system: PC-3 prostate
# [39] = test system: SF-268 CNS
# [40] = test system: SF-295 CNS
# [41] = test system: SF-539 CNS
# [42] = test system: SK-MEL-2 melanoma
# [43] = test system: SK-MEL-28 melanoma
# [44] = test system: SK-MEL-5 melanoma
# [45] = test system: SK-OV-3 ovarian
# [46] = test system: SN12C renal
# [47] = test system: SNB-19 CNS
# [48] = test system: SNB-75 CNS
# [49] = test system: SW-620 colon
# [50] = test system: TK-10 renal
# [51] = test system: U251 CNS
# [52] = test system: UACC-257 melanoma
# [53] = test system: UO-31 renal
# [54] = test system: HS 578T breast
# [55] = test system: RPMI-8226 leukemia
# [56] = test system: RXF 393 renal
# [57] = test system: SR leukemia
# [58] = test system: T-47D breast
# [59] = test system: UACC-62 melanoma
structure (smiles),measurement,setting,value
COC(=O)C1(C(=O)OC)CC2=C(S(=O)(=O)c3ccccc3)C[C@@H](C#N)[C@H]2C1,TGI,[1],> 100 µM
same,TGI,[2],> 100 µM
same,TGI,[3],> 100 µM
same,TGI,[4],> 100 µM
same,TGI,[5],> 100 µM
same,TGI,[6],> 100 µM
same,TGI,[7],> 100 µM
same,TGI,[8],> 100 µM
same,TGI,[9],> 100 µM
same,TGI,[10],> 100 µM
same,TGI,[11],31.2 µM
same,TGI,[12],> 100 µM
same,TGI,[13],> 100 µM
same,TGI,[14],> 100000 nM
same,TGI,[15],> 100 µM
same,TGI,[16],> 100 µM
same,TGI,[17],> 100 µM
same,TGI,[18],> 100 µM
same,TGI,[19],> 100000 nM
same,TGI,[20],> 100 µM
same,TGI,[21],> 100 µM
same,TGI,[22],> 100 µM
same,TGI,[23],> 100 µM
same,TGI,[24],> 100 µM
same,TGI,[25],> 100 µM
same,TGI,[26],> 100 µM
same,TGI,[27],> 100 µM
same,TGI,[28],> 100 µM
same,TGI,[29],> 100 µM
same,TGI,[30],> 100 µM
same,TGI,[31],> 100 µM
same,TGI,[32],> 100 µM
same,TGI,[33],> 100 µM
same,TGI,[34],75.6 µM
same,TGI,[35],> 100 µM
same,TGI,[36],> 100 µM
same,TGI,[37],> 100 µM
same,TGI,[38],> 100 µM
same,TGI,[39],> 100 µM
same,TGI,[40],> 100 µM
same,TGI,[41],> 100 µM
same,TGI,[42],> 100 µM
same,TGI,[43],> 100 µM
same,TGI,[44],> 100 µM
same,TGI,[45],> 100 µM
same,TGI,[46],> 100 µM
same,TGI,[47],> 100 µM
same,TGI,[48],> 100 µM
same,TGI,[49],> 100 µM
same,TGI,[50],> 100 µM
same,TGI,[51],> 100 µM
same,TGI,[52],> 100 µM
same,TGI,[53],> 100 µM
CN1CCN(Cc2ccc(NC(=O)c3cncc(C#Cc4c(N)ncc5ccc(F)cc45)c3)cc2C(F)(F)F)CC1,GI50,[1],911 nM
same,TGI,[1],1.81 µM
same,GI50,[2],299 nM
same,TGI,[2],1.26 µM
same,GI50,[3],960 nM
same,TGI,[3],6.21 µM
same,GI50,[4],562 nM
same,TGI,[4],1.27 µM
same,GI50,[5],2140 nM
same,TGI,[5],8.66 µM
same,GI50,[6],1060 nM
same,TGI,[6],5.68 µM
same,GI50,[7],553 nM
same,TGI,[7],3.73 µM
same,GI50,[8],206 nM
same,TGI,[8],3.32 µM
same,GI50,[9],1450 nM
same,TGI,[9],7.02 µM
same,GI50,[10],2830 nM
same,TGI,[10],10.6 µM
same,GI50,[11],653 nM
same,TGI,[11],9.66 µM
same,GI50,[12],211 nM
same,TGI,[12],1.37 µM
same,GI50,[13],487 nM
same,TGI,[13],6.85 µM
same,GI50,[14],75.8 nM
same,TGI,[14],1980 nM
same,GI50,[15],1170 nM
same,TGI,[15],4.67 µM
same,GI50,[16],28.5 nM
same,TGI,[16],0.322 µM
same,GI50,[54],512 nM
same,TGI,[54],1930 nM
same,GI50,[17],126 nM
same,TGI,[17],0.789 µM
same,GI50,[18],369 nM
same,TGI,[18],6.43 µM
same,GI50,[19],5 nM
same,TGI,[19],1070 nM
same,GI50,[20],5 nM
same,TGI,[20],0.939 µM
same,GI50,[21],303 nM
same,TGI,[21],1.05 µM
same,GI50,[22],194 nM
same,TGI,[22],0.857 µM
same,GI50,[23],166 nM
same,TGI,[23],0.743 µM
same,GI50,[24],297 nM
same,TGI,[24],1.53 µM
same,GI50,[25],240 nM
same,TGI,[25],1.15 µM
same,GI50,[26],180 nM
same,TGI,[26],0.876 µM
same,GI50,[28],234 nM
same,TGI,[28],3.03 µM
same,GI50,[29],400 nM
same,TGI,[29],1.75 µM
same,GI50,[30],574 nM
same,TGI,[30],4.58 µM
same,GI50,[31],647 nM
same,TGI,[31],3.33 µM
same,GI50,[32],1750 nM
same,TGI,[32],11.5 µM
same,GI50,[33],1890 nM
same,TGI,[33],5.83 µM
same,GI50,[34],4.07 µM
same,TGI,[34],16.5 µM
same,GI50,[35],825 nM
same,TGI,[35],3.87 µM
same,GI50,[36],524 nM
same,TGI,[36],1.27 µM
same,GI50,[37],1760 nM
same,TGI,[37],8.03 µM
same,GI50,[38],1230 nM
same,TGI,[38],3.78 µM
same,GI50,[55],757 nM
same,TGI,[55],3.87 µM
same,GI50,[56],642 nM
same,TGI,[56],1390 nM
same,GI50,[39],783 nM
same,TGI,[39],2.43 µM
same,GI50,[40],4.37 µM
same,TGI,[40],13 µM
same,GI50,[41],628 nM
same,TGI,[41],2.65 µM
same,GI50,[42],479 nM
same,TGI,[42],2.55 µM
same,GI50,[43],621 nM
same,TGI,[43],1.37 µM
same,GI50,[44],690 nM
same,TGI,[44],1.36 µM
same,GI50,[45],5.96 µM
same,TGI,[45],13.6 µM
same,GI50,[46],937 nM
same,TGI,[46],5.3 µM
same,GI50,[47],3.47 µM
same,TGI,[47],12 µM
same,GI50,[48],721 nM
same,TGI,[48],2.66 µM
same,GI50,[57],809 nM
same,TGI,[57],11.3 µM
same,GI50,[49],206 nM
same,TGI,[49],1.13 µM
same,GI50,[58],23.8 µM
same,TGI,[58],50 µM
same,GI50,[50],960 nM
same,TGI,[50],2.29 µM
same,GI50,[51],1050 nM
same,TGI,[51],4 µM
same,GI50,[52],694 nM
same,TGI,[52],1.69 µM
same,GI50,[59],640 nM
same,TGI,[59],1810 nM
same,GI50,[53],688 nM
same,TGI,[53],1.5 µM
NC(N)=NS(=O)(=O)c1ccc(NC(=O)c2c3ccccc3nc3ccccc23)cc1,TGI,[1],> 100 µM
same,TGI,[2],> 100 µM
same,TGI,[3],> 100 µM
same,TGI,[4],> 100 µM
same,TGI,[5],> 100 µM
same,TGI,[6],> 100 µM
same,TGI,[7],> 100 µM
same,TGI,[8],> 100 µM
same,TGI,[9],> 100 µM
same,TGI,[10],> 100 µM
same,TGI,[11],> 100 µM
same,TGI,[12],> 100 µM
same,TGI,[13],> 100 µM
same,TGI,[15],> 100 µM
same,TGI,[16],> 100 µM
same,TGI,[17],> 100 µM
same,TGI,[18],> 100 µM
same,TGI,[20],> 100 µM
same,TGI,[21],> 100 µM
same,TGI,[22],> 100 µM
same,TGI,[23],> 100 µM
same,TGI,[24],> 100 µM
same,TGI,[25],> 100 µM
same,TGI,[26],> 100 µM
same,TGI,[27],> 100 µM
same,TGI,[28],> 100 µM
same,TGI,[29],> 100 µM
same,TGI,[30],> 100 µM
same,TGI,[31],> 100 µM
same,TGI,[32],> 100 µM
same,TGI,[33],> 100 µM
same,TGI,[34],> 100 µM
same,TGI,[35],> 100 µM
same,TGI,[36],> 100 µM
same,TGI,[37],> 100 µM
same,TGI,[38],> 100 µM
same,TGI,[55],> 100 µM
same,TGI,[39],> 100 µM
same,TGI,[40],> 100 µM
same,TGI,[41],> 100 µM
same,TGI,[42],> 100 µM
same,TGI,[43],> 100 µM
same,TGI,[44],> 100 µM
same,TGI,[45],> 100 µM
same,TGI,[46],> 100 µM
same,TGI,[47],> 100 µM
same,TGI,[48],> 100 µM
same,TGI,[57],> 100 µM
same,TGI,[49],> 100 µM
same,TGI,[50],> 100 µM
same,TGI,[51],> 100 µM
same,TGI,[52],> 100 µM
same,TGI,[59],> 100000 nM
same,TGI,[53],> 100 µM
